Source: patent publication US10421784B2, “Cell penetrating peptides for intracellular delivery of molecules” (AADIGEN, LLC, priority 2012, dated 2019)
pIC50, pKd: −log10 of the molar value. Where two headings read alike, the source gives them in different places.

Assays:
HepG2 [1] = assay: Uptake of Cy-5 labelled PNA (FACS); format: cell-based, Human
Source text: (§1) VEPEP-9 peptides have been used for the delivery of nucleic acid analogues (PNA and morpholino) into different cell lines, including primary cell lines and challenging cell lines. […] Uptake was monitored using fluorescence spectroscopy and following biological response (Cyclin B1 knockdown).
(§2) Fluorescently labelled PNA was visualized in the different cell lines using fluorescence microscopy or FACS sorting (Table 5). In most of the cell lines, the uptake of Cy-5 labelled PNA is more than 60% of the cells.

CEM-SS [2] = assay: Uptake of Cy-5 labelled PNA (FACS); format: cell-based, Human
Source text: as §1, §2

U2OS [3] = assay: Uptake of Cy-5 labelled PNA (FACS); format: cell-based, Human
Source text: as §1, §2

MT4 [4] = assay: Uptake of Cy-5 labelled PNA (FACS); format: cell-based, Human
Source text: as §1, §2

MCF7 [5] = assay: Uptake of Cy-5 labelled PNA (FACS); format: cell-based, Human
Source text: as §1, §2

Hela [6] = assay: Uptake of Cy-5 labelled PNA (FACS); format: cell-based, Human
Source text: as §1, §2

HS-68 [7] = assay: Uptake of Cy-5 labelled PNA (FACS); format: cell-based, Human
Source text: as §1, §2

Jurkat [8] = assay: Uptake of Cy-5 labelled PNA (FACS); format: cell-based, Human
Source text: as §1, §2

HepG2 [9] = assay: Uptake of Cy-5 labelled small peptide (FACS); format: cell-based, Human
Description: (§3) Adherent HS68 fibroblasts, HeLa, PC3, MCF-7, SCK3-Her2, PBMC cell lines (from American Type Culture Collection (ATCC)) were cultured in Dulbecco's Modified Eagle's Medium supplemented with 2 mM glutamine, 1% antibiotics (streptomycin 10,000 μg/ml, penicillin, 10,000 IU/ml) and 10% (w/v) foetal calf serum (FCS), at 37° C. in a humidified atmosphere containing 5% CO2. Stock solutions of VEPEP-9/peptide particles were prepared by complexing 1 μM peptide with VEPEP-9 peptides at a molar ratio of 1/20 for 30 min at 37° C. Lower concentrations of VEPEP-9-carrier/peptide (from 500 nM to 1 μM) were obtained by serial dilution of the stock complexes in PBS, in order to preserve the same VEPEP-9-carrier/peptide ratio. Stock solutions of VEPEP-9/siRNA particles were prepared by complexing 100 nM siRNA with VEPEP-9 peptides at a molar ratio of 1/20 for 30 min at 37° C. Lower concentrations of VEPEP-9/siRNA (from 20 nM to 0.125 nM) were obtained by serial dilution of the stock complexes in PBS, in order to preserve the same VEPEP-9/siRNA ratio. 150,000 cells seeded in a 35 mm dish the day prior transfection, were grown to 60% confluence and overlaid with 200 μl of preformed complexes, incubated for 3-5 min, then 400 μl of DMEM were added. After 30 min. incubation at 37° C., 1 ml of fresh DMEM containing 16% foetal calf serum (FCS) was added in order to reach a final FCS concentration of 10%, without removing the overlay of VEPEP-9/cargo complexes. Cells were returned to the incubator for 24 hrs. For cdk2 derived peptides, cell proliferation was monitored after 24 and 48 hrs. For siRNA targeting Cyclin B1, Cyclin B1 mRNA level was determined 24 hrs following transduction, using Quantigen (Pommies Inc.). Data reported are an average of 3 or 4 distinct experiments.
(§4) VEPEP-9a, VEPEP-9c and VEPEP-9f have been used for the delivery of small peptides into different cell lines, including primary cell lines, stem cell lines and challenging cell lines. Cargoes uptake was monitored using fluorescence spectroscopy and FACS analysis. Fluorescently labelled peptides were visualized in the different cell lines using fluorescence microscopy or FACS sorting (Table 4). In most of the cell lines, the uptake of Cy-5 labelled peptide is more than 70% of the cells.

CEM-SS [10] = assay: Uptake of Cy-5 labelled small peptide (FACS); format: cell-based, Human
Description: as §3, §4

U2OS [11] = assay: Uptake of Cy-5 labelled small peptide (FACS); format: cell-based, Human
Description: as §3, §4

MT4 [12] = assay: Uptake of Cy-5 labelled small peptide (FACS); format: cell-based, Human
Description: as §3, §4

MCF7 [13] = assay: Uptake of Cy-5 labelled small peptide (FACS); format: cell-based, Human
Description: as §3, §4

Hela [14] = assay: Uptake of Cy-5 labelled small peptide (FACS); format: cell-based, Human
Description: as §3, §4

HS-68 [15] = assay: Uptake of Cy-5 labelled small peptide (FACS); format: cell-based, Human
Description: as §3, §4

Jurkat [16] = assay: Uptake of Cy-5 labelled small peptide (FACS); format: cell-based, Human
Description: as §3, §4

cultured cells = assay: Cell cycle progression / cyclin B1 levels in cultured cells; format: cell-based; conditions: carrier alone (200 μM)
STEM [17] = assay: Uptake of Cy-5 labelled small peptide (FACS); format: cell-based, Mouse
Description: as §3, with “Cells were returned to the incubator for 24 hrs.” left out, “Data reported are an average of 3 or 4 distinct experiments.” left out
as §4, with “In most of the cell lines, the uptake of Cy-5 labelled peptide is more than 70% of the cells.” left out

C2C12 [18] = assay: Uptake of Cy-5 labelled small peptide (FACS); format: cell-based, Mouse
Description: as §3, with “Cells were returned to the incubator for 24 hrs.” left out, “Data reported are an average of 3 or 4 distinct experiments.” left out
as §4, with “In most of the cell lines, the uptake of Cy-5 labelled peptide is more than 70% of the cells.” left out

MEF [19] = assay: Uptake of Cy-5 labelled small peptide (FACS); format: cell-based, Mouse
Description: as §3, with “Cells were returned to the incubator for 24 hrs.” left out, “Data reported are an average of 3 or 4 distinct experiments.” left out
as §4, with “In most of the cell lines, the uptake of Cy-5 labelled peptide is more than 70% of the cells.” left out

STEM [20] = assay: Uptake of Cy-5 labelled PNA (FACS); format: cell-based, Mouse
Source text: as §1, §2

C2C12 [21] = assay: Uptake of Cy-5 labelled PNA (FACS); format: cell-based, Mouse
Source text: as §1, §2

MEF [22] = assay: Uptake of Cy-5 labelled PNA (FACS); format: cell-based, Mouse
Source text: as §1, §2

Peptide (C4) = assay: Fluorescence titration, VEPEP-9/cargo binding; conditions: cargo peptide (C4)
Description: (§5) Fluorescence experiments were performed on a PTI spectrofluorimeter at 25° C. in a NaCl 154 mM buffer. Intrinsic Trp-fluorescence of VEPEP-9 was excited at 290 nm and emission spectrum was recorded between 310 and 400 nm, with a spectral band-pass of 2 and 8 nm for excitation and emission, respectively. FITC- or CY5-fluorescence of labelled-peptide or Oligonucleotide were excited at 492 nm and emission recorded between 500 and 580 nm. For VEPEP-9/peptide interaction, 0.5 μM of FITC-labelled peptide was titrated by increasing concentrations of VEPEP-9. For VEPEP-9/oligonucleotide interaction, 200 nM of FITC or CY5-labelled oligodeoxynucleotide (ODN) was titrated by increasing concentrations of VEPEP-9. All measurements were corrected for the dilution and curve fitting were performed by using Grafit software (Erithacus).
(§6) VEPEP-9 peptide form stable complexes with peptides and ODN. The binding of cargos to VEPEP-9 was monitored by fluorescence spectroscopy using the both intrinsic Trp group of VEPEP-9 (3 to 5 Trp-residues) and extrinsic fluorescently labelled cargoes (using Cy3, Cy5 or FITC). Curve fitting reveal that VEPEP-9 strongly binds the different cargoes with dissociation constant in the nanomolar range (Tables 1 and 2 and FIG. 2).
(§7) VEPEP-9 peptides form stable particles with different cargoes including peptide, siRNA, PNA and small aromatic (FIG. 2). The dissociation constant for peptide, siRNA, PNA and small hydrophobic molecule ranges between 10-100 nM, 5-50 nM, 5-50 nM and 0.02 to 0.2 μM, respectively, depending on the nature of the dyes and of the cargoes.

PNA (15 mer -PNA) = assay: Fluorescence titration, VEPEP-9/cargo binding; conditions: cargo PNA (15 mer)
Description: as §5, §6, §7

[23] = Fluorescence titration, VEPEP-9/cargo binding; conditions: cargo SHM
Description: as §5, §6, §7

siRNA = assay: Fluorescence titration, VEPEP-9/cargo binding; conditions: cargo siRNA
Description: as §5, §6, §7

[24] = Fluorescence titration, VEPEP-9/SHM binding
Description: as §5
Binding of small molecule cargoes has been investigated in detailed depending on the nature of the SHM. Several hydrophobic molecules have been used (Daunomycin, Paclitaxel, doxorubicin, porphyrin), as well as charged molecules (nucleotide, nucleoside and fluorescent dyes).

MCF7 [25] = assay: Inhibition of cancer cell proliferation by delivered drugs; format: cell-based; conditions: Homo sapiens
SKB3 = assay: as above; format: cell-based; conditions: drug complexed with VEPEP-9f at molar ratio 1/20, read-out: VEPEP-9f IC50
[26] = tested on: SKB3-HEK2 xenografted mice; assay: Survival after intravenous NANOPEP-9/doxorubicin; format: in vivo; conditions: free Doxo (20 mg/Kg), intravenous every 4 days
Description: NANOPEP-9 peptides (VEPEP-9a, b, d, f variants) have been used for the delivery of doxorubicin in vivo. The potential of NANOPEP-9 to deliver doxorubicin in vivo was evaluated on SKB3-HEK2 xenografted mice. Doxorubicin was complexed with VEPEP-9 peptide at a molar ratio of 1/20 with NANOPEP-9a, NANOPEP-9f and NANOPEP-9a-PEG. The treatment was started 10 days after tumor inoculation and with 2 mg/kg and 10 mg/Kg doses of drug and injected every 4 days by systemic Intravenous administration and mice were monitored for survival (FIG. 15).

**Q.** Which results are given for “X1WWRWWAPWARSWWR [VEPEP-9f, X1 is beta-A or S]”?
**A.** Efficiency (uptake of Cy-5 labelled PNA) (HepG2 [1]): 71%; Efficiency (uptake of Cy-5 labelled PNA) (CEM-SS [2]): 78%; Efficiency (uptake of Cy-5 labelled PNA) (U2OS [3]): 89%; Efficiency (uptake of Cy-5 labelled PNA) (MT4 [4]): 67%; Efficiency (uptake of Cy-5 labelled PNA) (MCF7 [5]): 83%; Efficiency (uptake of Cy-5 labelled PNA) (Hela [6]): 78%; Efficiency (uptake of Cy-5 labelled PNA) (HS-68 [7]): 71%; Efficiency (uptake of Cy-5 labelled PNA) (Jurkat [8]): 81%; Efficiency (uptake of Cy-5 labelled small peptide) (HepG2 [9]): 48%; Efficiency (uptake of Cy-5 labelled small peptide) (CEM-SS [10]): 87%; Efficiency (uptake of Cy-5 labelled small peptide) (U2OS [11]): 57%; Efficiency (uptake of Cy-5 labelled small peptide) (MT4 [12]): 56%; Efficiency (uptake of Cy-5 labelled small peptide) (MCF7 [13]): 89%; Efficiency (uptake of Cy-5 labelled small peptide) (Hela [14]): 60%; Efficiency (uptake of Cy-5 labelled small peptide) (HS-68 [15]): 67%; Efficiency (uptake of Cy-5 labelled small peptide) (Jurkat [16]): 65%; effect on cell cycle progression (cultured cells): no effect; Efficiency (uptake of Cy-5 labelled small peptide) (STEM [17]): 76%; Efficiency (uptake of Cy-5 labelled small peptide) (C2C12 [18]): 57%; Efficiency (uptake of Cy-5 labelled small peptide) (MEF [19]): 75%; Efficiency (uptake of Cy-5 labelled PNA) (STEM [20]): 88%; Efficiency (uptake of Cy-5 labelled PNA) (C2C12 [21]): 69%; Efficiency (uptake of Cy-5 labelled PNA) (MEF [22]): 74%; Binding (Peptide (C4)): yes; Binding (PNA (15 mer -PNA)): Yes; pKd (PNA (15 mer -PNA)): < 7.30; Binding [23]: Yes; pKd [23]: 7.00 to 7.70; Binding (siRNA): yes; pKd (siRNA): < 6.70; Binding ([24]; cargo AZT): No; Binding ([24]; cargo Doxorubicin): yes; Binding ([24]; cargo FAM-guanosine): yes; pKd ([24]; cargo FAM-guanosine): 6.10; Binding ([24]; cargo porphyrin): yes; pKd ([24]; cargo porphyrin): 6.96

**Q.** With `COc1cccc2c1C(=O)c1c(O)c3c(c(O)c1C2=O)C[C@@](O)(C(=O)CO)C[C@@H]3O[C@H]1C[C@H](N)[C@H](O)[C@H](C)O1` [Doxo, doxorubicin] as the compound, how does the pIC50 (MCF7 [25]; drug complexed with VEPEP-9a at molar ratio 1/20, read-out: VEPEP-9a IC50) read?
**A.** 7.00

**Q.** And the pIC50 (MCF7 [25]; drug complexed with VEPEP-9f at molar ratio 1/20, read-out: VEPEP-9f IC50)?
**A.** 6.15

**Q.** What about the pIC50 (MCF7 [25]; drug complexed with VEPEP-9d at molar ratio 1/20, read-out: VEPEP-9d IC50) of the same compound?
**A.** 6.77

**Q.** And the pIC50 (SKB3)?
**A.** 6.22

**Q.** What about the survival time [26] of the same compound?
**A.** 16 days
